Experimental data taken from ChEMBL document CHEMBL3632579, “Hybrids from 4-anilinoquinazoline and hydroxamic acid as dual inhibitors of vascular endothelial growth factor receptor-2 and histone deacetylase” (Bioorg Med Chem Lett, 2015).
pIC50: −log10 of the molar value.

Key:
Histone deacetylase = test: Inhibition of human HDAC in HeLa cell nuclear extract by fluorometric assay using Fluor de Lys substrate; type: protein assay
[1] = biological target: Vascular endothelial growth factor receptor 2 (Homo sapiens, UniProt P35968); test: Inhibition VEGFR2 (unknown origin) for 30 mins by ELISA
Sequence of Vascular endothelial growth factor receptor 2 (P35968 whole entry): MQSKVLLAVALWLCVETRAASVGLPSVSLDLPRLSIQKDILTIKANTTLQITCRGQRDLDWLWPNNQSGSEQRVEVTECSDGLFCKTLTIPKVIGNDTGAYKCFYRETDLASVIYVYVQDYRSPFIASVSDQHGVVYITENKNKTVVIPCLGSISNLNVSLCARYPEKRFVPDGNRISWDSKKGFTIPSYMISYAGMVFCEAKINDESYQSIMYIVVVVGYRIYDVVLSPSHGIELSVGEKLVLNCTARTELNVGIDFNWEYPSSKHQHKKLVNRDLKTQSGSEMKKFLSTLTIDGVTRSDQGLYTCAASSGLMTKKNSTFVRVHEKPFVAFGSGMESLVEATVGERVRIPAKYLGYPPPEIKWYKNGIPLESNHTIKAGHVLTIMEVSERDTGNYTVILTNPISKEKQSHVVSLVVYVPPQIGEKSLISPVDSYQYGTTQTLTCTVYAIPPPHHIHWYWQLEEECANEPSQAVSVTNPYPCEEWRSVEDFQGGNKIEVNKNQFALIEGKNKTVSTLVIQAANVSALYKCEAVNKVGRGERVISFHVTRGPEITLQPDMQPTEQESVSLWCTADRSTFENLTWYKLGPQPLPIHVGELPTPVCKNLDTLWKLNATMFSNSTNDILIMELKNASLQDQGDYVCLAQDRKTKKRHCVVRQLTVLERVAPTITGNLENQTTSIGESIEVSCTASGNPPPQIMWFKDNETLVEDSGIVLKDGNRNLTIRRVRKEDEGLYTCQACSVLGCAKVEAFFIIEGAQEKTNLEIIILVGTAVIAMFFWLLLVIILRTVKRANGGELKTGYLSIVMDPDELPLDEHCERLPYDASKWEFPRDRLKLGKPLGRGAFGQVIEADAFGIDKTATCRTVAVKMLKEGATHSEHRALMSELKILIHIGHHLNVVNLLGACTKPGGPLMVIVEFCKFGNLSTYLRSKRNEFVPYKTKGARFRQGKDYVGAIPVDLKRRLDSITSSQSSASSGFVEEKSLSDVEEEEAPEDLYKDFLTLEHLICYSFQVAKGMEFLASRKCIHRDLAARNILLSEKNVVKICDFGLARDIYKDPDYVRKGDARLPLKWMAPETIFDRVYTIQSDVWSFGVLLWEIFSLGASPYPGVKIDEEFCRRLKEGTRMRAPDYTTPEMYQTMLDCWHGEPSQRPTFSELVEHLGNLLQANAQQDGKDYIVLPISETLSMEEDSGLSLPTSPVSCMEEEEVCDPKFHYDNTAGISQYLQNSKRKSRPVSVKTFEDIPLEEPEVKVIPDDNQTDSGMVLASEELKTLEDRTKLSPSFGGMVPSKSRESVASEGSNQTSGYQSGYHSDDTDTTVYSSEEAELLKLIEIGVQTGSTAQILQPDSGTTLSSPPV

MCF7 = test: Antiproliferative activity against human MCF7 cells after 48 hrs by MTT assay; type: functional, cell-based; details: MCF7, 48 h
A549 = test: Antiproliferative activity against human A549 cells after 48 hrs by MTT assay; type: functional, cell-based; details: A549, 48 h
Histone deacetylase 2 = Histone deacetylase 2 (Homo sapiens, UniProt Q92769); test: Inhibition of human recombinant HDAC2 by fluorometric assay using Fluor de Lys substrate
Sequence of Histone deacetylase 2 (Q92769 whole entry): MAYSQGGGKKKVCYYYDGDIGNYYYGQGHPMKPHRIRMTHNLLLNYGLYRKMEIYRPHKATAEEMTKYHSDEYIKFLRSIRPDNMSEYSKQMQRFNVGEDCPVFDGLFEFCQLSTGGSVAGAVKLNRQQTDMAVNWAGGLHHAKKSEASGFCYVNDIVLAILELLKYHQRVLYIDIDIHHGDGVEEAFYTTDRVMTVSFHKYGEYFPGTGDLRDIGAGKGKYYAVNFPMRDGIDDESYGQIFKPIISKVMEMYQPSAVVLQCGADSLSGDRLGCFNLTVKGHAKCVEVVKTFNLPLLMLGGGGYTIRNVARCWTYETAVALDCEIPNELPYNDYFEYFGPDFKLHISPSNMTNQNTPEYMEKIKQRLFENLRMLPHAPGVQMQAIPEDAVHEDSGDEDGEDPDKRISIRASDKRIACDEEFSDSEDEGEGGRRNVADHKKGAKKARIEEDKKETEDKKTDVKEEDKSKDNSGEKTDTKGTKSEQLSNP

HCT-116 = test: Antiproliferative activity against human HCT116 cells after 48 hrs by MTT assay; type: functional, cell-based; details: HCT-116, 48 h
HepG2 = test: Antiproliferative activity against human HepG2 cells after 48 hrs by MTT assay; type: functional, cell-based; details: HepG2, 48 h
Histone deacetylase 1 = Histone deacetylase 1 (Homo sapiens, UniProt Q13547); test: Inhibition of human recombinant HDAC1 by fluorometric assay using Fluor de Lys substrate
Sequence of Histone deacetylase 1 (Q13547 whole entry): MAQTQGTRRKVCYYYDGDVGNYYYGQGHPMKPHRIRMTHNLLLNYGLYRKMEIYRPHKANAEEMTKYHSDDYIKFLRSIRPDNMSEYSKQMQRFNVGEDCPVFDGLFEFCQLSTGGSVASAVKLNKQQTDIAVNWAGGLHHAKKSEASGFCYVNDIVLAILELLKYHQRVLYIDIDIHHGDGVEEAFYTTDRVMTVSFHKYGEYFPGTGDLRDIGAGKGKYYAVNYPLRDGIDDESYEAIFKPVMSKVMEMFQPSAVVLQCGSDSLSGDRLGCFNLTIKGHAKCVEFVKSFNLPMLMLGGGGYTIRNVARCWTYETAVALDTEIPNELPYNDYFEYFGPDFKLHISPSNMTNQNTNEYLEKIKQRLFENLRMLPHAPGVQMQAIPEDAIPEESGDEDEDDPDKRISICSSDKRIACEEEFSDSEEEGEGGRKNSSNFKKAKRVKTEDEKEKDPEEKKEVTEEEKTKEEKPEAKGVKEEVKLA

[2] = biological target: T1, Protein deacetylase HDAC6 (Homo sapiens, UniProt Q9UBN7); test: Inhibition of human recombinant HDAC6 by fluorometric assay using Fluor de Lys substrate
T1 sequence (Q9UBN7 whole entry): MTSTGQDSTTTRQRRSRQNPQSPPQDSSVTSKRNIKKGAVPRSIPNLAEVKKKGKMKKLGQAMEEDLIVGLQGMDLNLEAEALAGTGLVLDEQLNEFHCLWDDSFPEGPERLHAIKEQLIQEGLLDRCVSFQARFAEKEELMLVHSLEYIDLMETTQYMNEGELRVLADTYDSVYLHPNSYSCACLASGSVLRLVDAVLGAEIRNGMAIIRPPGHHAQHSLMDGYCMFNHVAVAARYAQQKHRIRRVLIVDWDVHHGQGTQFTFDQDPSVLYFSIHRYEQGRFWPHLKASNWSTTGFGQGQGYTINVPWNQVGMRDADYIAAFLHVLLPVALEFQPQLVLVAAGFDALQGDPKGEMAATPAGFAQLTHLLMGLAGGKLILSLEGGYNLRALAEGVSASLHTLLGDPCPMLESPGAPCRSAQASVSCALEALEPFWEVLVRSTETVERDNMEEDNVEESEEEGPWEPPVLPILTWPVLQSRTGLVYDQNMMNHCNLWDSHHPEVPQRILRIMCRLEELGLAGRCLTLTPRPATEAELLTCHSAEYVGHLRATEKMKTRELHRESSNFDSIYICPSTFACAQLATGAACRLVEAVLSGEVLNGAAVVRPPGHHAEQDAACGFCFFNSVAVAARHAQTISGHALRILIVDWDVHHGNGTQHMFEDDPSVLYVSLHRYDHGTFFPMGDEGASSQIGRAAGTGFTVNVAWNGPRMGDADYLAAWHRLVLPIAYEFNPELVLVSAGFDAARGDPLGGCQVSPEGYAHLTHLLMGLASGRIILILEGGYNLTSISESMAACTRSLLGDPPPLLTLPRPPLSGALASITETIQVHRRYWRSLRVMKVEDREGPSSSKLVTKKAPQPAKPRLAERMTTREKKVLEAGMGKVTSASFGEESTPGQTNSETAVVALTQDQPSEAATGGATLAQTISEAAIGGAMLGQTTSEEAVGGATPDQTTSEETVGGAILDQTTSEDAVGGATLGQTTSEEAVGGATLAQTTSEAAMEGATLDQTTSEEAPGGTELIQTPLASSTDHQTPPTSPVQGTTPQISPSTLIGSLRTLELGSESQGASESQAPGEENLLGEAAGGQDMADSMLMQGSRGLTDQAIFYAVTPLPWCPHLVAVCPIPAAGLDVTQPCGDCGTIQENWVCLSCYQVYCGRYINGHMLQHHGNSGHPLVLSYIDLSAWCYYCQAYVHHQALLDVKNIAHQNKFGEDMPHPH

Histone deacetylase 8 = biological target: T2, Histone deacetylase 8 (Homo sapiens, UniProt Q9BY41); test: Inhibition of human recombinant HDAC8 by fluorometric assay using Fluor de Lys substrate
T2 sequence (Q9BY41 whole entry): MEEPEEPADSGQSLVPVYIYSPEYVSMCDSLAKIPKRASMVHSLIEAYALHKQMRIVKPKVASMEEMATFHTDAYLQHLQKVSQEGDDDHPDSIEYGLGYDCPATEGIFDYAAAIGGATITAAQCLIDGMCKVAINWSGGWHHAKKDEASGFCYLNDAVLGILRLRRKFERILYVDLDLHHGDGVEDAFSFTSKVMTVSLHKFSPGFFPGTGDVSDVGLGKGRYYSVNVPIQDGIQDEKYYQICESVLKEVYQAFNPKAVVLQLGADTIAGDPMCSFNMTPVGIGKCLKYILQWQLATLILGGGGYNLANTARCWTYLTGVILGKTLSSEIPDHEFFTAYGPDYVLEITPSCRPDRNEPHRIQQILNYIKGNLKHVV

Row | SMILES | IC50 (Histone deacetylase) [nM] | pIC50 [1] | pIC50 (MCF7) | further results
1 | COc1cc2ncnc(Nc3cccc(Cl)c3)c2cc1OCCC(=O)NO | 645 | 6.32 | < 4.00 | 
2 | COc1cc2ncnc(Nc3cccc(Cl)c3)c2cc1OCCCCC(=O)NO | 17 | 6.21 | 5.07 | 
3 | COc1cc2ncnc(Nc3cccc(Br)c3)c2cc1OCCCCCC(=O)NO | 4.5 | 6.34 | 5.55 | 
4 | COc1cc2ncnc(Nc3ccc(Cl)cc3Cl)c2cc1OCCC(=O)NO | 215 | 6.43 | 4.02 | 
5 | COc1cc2ncnc(Nc3ccc(Cl)cc3Cl)c2cc1OCCCC(=O)NO | 86 | 6.86 | 4.25 | 
6 | COc1cc2ncnc(Nc3ccc(Cl)cc3Cl)c2cc1OCCCCC(=O)NO | 14 | 6.94 | 5.19 | 
7 | COc1cc2ncnc(Nc3ccc(Cl)cc3Cl)c2cc1OCCCCCC(=O)NO | 2.8 | 7.08 | 5.92 | pIC50 (A549): 5.27; pIC50 (Histone deacetylase 2): 8.17; pIC50 (HCT-116): 5.74; pIC50 (HepG2): 5.57; pIC50 (Histone deacetylase 1): 8.46; pIC50 [2]: 7.59; pIC50 (Histone deacetylase 8): 8.28
8 | COc1cc2ncnc(Nc3cc(Cl)ccc3Cl)c2cc1OCCCCC(=O)NO | 21 | 5.28 | 4.86 | 
9 | COc1cc2ncnc(Nc3cc(Cl)ccc3Cl)c2cc1OCCCCCC(=O)NO | 8.4 | 5.61 | 5.40 | 
10 | COc1cc2/c(=N/c3ccc(Br)cc3F)nc[nH]c2cc1OCC1CCN(C)CC1 [VANDETANIB] | > 10000 |  | 4.73 | 

The next lines start with results.

Row | IC50 (Histone deacetylase) [nM] | pIC50 [1] | pIC50 (MCF7) | SMILES | further results
11 | 121 | 6.45 | 4.19 | COc1cc2ncnc(Nc3cccc(Cl)c3)c2cc1OCCCC(=O)NO | 
12 | 5.4 | 6.30 | 5.49 | COc1cc2ncnc(Nc3cccc(Cl)c3)c2cc1OCCCCCC(=O)NO | 
13 | 531 | 6.20 | < 4.00 | COc1cc2ncnc(Nc3cccc(Br)c3)c2cc1OCCC(=O)NO | 
14 | 97 | 6.36 | 4.16 | COc1cc2ncnc(Nc3cccc(Br)c3)c2cc1OCCCC(=O)NO | 
15 | 15 | 6.38 | 5.07 | COc1cc2ncnc(Nc3cccc(Br)c3)c2cc1OCCCCC(=O)NO | 
16 | 348 | 5.90 | < 4.00 | COc1cc2ncnc(Nc3cc(Cl)ccc3Cl)c2cc1OCCC(=O)NO | 
17 | 57 | 5.67 | 4.35 | COc1cc2ncnc(Nc3cc(Cl)ccc3Cl)c2cc1OCCCC(=O)NO | 
18 |  | < 5.00 |  | O=C(CCCCCCC(=O)Nc1ccccc1)NO [VORINOSTAT] | 
